# Measurements from PMC9457533, “Study on Metronidazole Acid-Base Behavior and Speciation with Ca^2+ for Potential Applications in Natural Waters” (Molecules, 2022).
# Key:
# [1] = Potentiometric titrations: protonation constants of MNZ in NaCl; format: physicochemical; details: for logβ^H2L: 2H + L = H2L; for logβ^HL: H + L = HL; for logβ average value: I = 0.15 mol L^-1, average of 1H-NMR, UV; for logK^H2L: LH + H = H2L
# From the text: The knowledge of the protonation constants of a ligand is crucial to defining the ionization state which influences several characteristics, such as aqueous solubility, and complexation ability. The equilibrium reactions associated with the protonation constant values are the following, where the charges are omitted for simplicity and MNZ was indicated as L: iH + L = HiL β^H^iL(1) H + Hi−1L = HiL K^H^iL(2)
# The potentiometric titrations were employed by Metrohm-Titrando 809 automated potentiometer with a combined glass electrode ORION, type Ross 8102SC and a Metrohm Dosino 800 automatic dispenser. The titrations were performed in cells with a capacity of 25 mL, characterized by a double wall inside which thermostated water circulates. The cells were connected to a thermostat model D1-G Haake. During the measurements, pure N2 was bubbled to avoid CO2 and O2 in solution. The system is interfaced to a PC through the Metrohm TIAMO 2.0 software, which automatically acquires the mL/mV pairs. It can control several parameters, such as e.m.f. stability, titrant delivery, and data acquisition. Estimated accuracy of this apparatus is ±0.15 mV and ±0.002 mL for e.m.f. and for readings of titrant volume. The acid-base titrations were carried out first on 25 mL solutions containing L, HCl, and NaCl as supporting electrolytes at different temperatures and ionic strength conditions. Various potentiometric titrations are performed on 25 mL containing Ca^2+-L in different ratios, in NaCl at t = 15, 25, and 37 °C and I = 0.15, 0.5 and […]. The solutions were titrated using standard NaOH solution. A calibration was associated with each measurement by titration with NaOH of a solution containing HCl, NaCl, and H2O, in order to calculate the standard electrode potential (E^0) and the pKw values.
# (§1) The protonation constant of MNZ (L), formation constant values of Ca^2+(M)-MNZ (L), and titration parameters (analytical concentration of the reagents, standard potential E^0, junction potential) were determined by using BSTAC and STACO programs. LIANA program has provided the parameters characterizing the dependence of the protonation and formation constant values on the temperature and ionic strength. More details on software are present in ref. [59]. ^1H NMR data were processed by HypNMR software, which allows for calculating protonation and formation constant values and the individual chemical shift of species through the observed signals and assuming fast mutual exchange in the NMR time scale. UV-Vis data are processed by the HypSpec program, which allows refining of the protonation and formation constant as well as the molar absorption coefficient values (ε) of the species. The speciation diagrams and the formation percentage of the species are determined by the Hyss program.
# [2] = UV-Vis spectrophotometric titrations: formation constant of Ca^2+-MNZ species; format: physicochemical; details: Ca + L + H = CaLH; t = 25 °C, I = 0.15 mol L^-1
# Method: As widely reported in the literature, the high ability of L to absorb in the UV range has often been used to determine quantitatively and qualitatively this antibiotic in waters. Various spectrophotometric titrations on solutions containing L and M-L mixtures were performed to investigate L spectral behavior and to confirm the protonation and formation constants values as well as the speciation model obtained by potentiometry, as already shown with other systems.
# The spectrophotometric titrations were performed with a Varian Cary 50 UV-Vis spectrophotometer characterized by an optical fiber with a fixed 1 cm path length. The system was interfaced to a PC by the Varian Cary WinUV software. For all titrations, a Thermo-Fisher glass electrode was also used to record simultaneously the couple of data absorbance (A) and e.m.f. (mV) vs. volume of titrant (mL), for each titration point. The analyses were carried out in a thermostated cell, in which N2 was bubbled in solution to avoid CO2 and O2.
# The protonation constant of MNZ (L), formation constant values of Ca^2+(M)-MNZ (L), and titration parameters (analytical concentration of the reagents, standard potential E^0, junction potential) were determined by using BSTAC and STACO programs. […] The speciation diagrams and the formation percentage of the species are determined by the Hyss program.
# [3] = Dependence of Ca^2+-MNZ formation constant on ionic strength (Debye-Hückel type equation); format: physicochemical; details: Ca + L + H = CaLH, t = 25 °C, NaCl
# From the text: The choice to carry out the experiments at various ionic strengths made it possible to study the dependence of the values of the protonation and formation constants on the ionic strength, expressed by a Debye-Hückel type equation, reported below: (5) logβ=logβ^T − 0.51 z* I/1 + 1.5 I + CI where β^T is the protonation constant at infinite dilution, z* is the parameter that refers to the charges present in the solution corresponding to ∑z^2reagents − ∑z^2products, and C refers to the empirical parameter that depends on the stoichiometric coefficients and on the charges. Using Equation (5) and equilibrium constants at various ionic strength values, the formation constants extrapolated to I = 0 mol L^−1, together with the empirical parameter C, were obtained.
# The protonation constant of MNZ (L), formation constant values of Ca^2+(M)-MNZ (L), and titration parameters (analytical concentration of the reagents, standard potential E^0, junction potential) were determined by using BSTAC and STACO programs. LIANA program has provided the parameters characterizing the dependence of the protonation and formation constant values on the temperature and ionic strength. […] The speciation diagrams and the formation percentage of the species are determined by the Hyss program.
# [4] = Speciation simulation of MNZ under sea water conditions; details: pH = 8.1, I = 0.7 mol L^-1, t = 25 °C
# Method: In order to assess the relevance of the Ca^2+ complex in sea water conditions, the average concentrations of MNZ (L), Ca^2+, Mg^2+, and other divalent cations such as Cu^2+ and Zn^2+, were considered. With the use of the thermodynamic data here determined, it is possible to carry out simulations in sea water conditions. More in detail, the protonation constants of L and the stability constants of Ca^2+-L complex species were calculated by data in Table 3 at I = 0.7 mol L^−1, i.e., the mean ionic strength of sea water. For Cu^2+-L and Zn^2+-L complexes, data of formation constants determined by us and not yet published were used. […] Formation constant values of Cu^2+- and Zn^2+-L species under sea water conditions, belonging to our unpublished study, are summarized in the Supplementary Materials.
# as §1
# [5] = set-up: method as in PMID 23380153; details: 25 °C, I = 0.2 mol L^-1 in NaCl, water-ethanol (90:10, v/v), potentiometric titrations; cited from earlier work
# [6] = t = 15 °C, I = 0.15 mol L^-1 NaCl
# [7] = t = 15 °C, I = 0.5 mol L^-1 NaCl
# [8] = t = 15 °C, I = 0.97 mol L^-1 NaCl
# [9] = t = 25 °C, I = 0.5 mol L^-1 NaCl
# [10] = t = 25 °C, I = 0.96 mol L^-1 NaCl
# [11] = t = 37 °C, I = 0.14 mol L^-1 NaCl
# [12] = t = 37 °C, I = 0.5 mol L^-1 NaCl
# [13] = t = 37 °C, I = 0.96 mol L^-1 NaCl
# [14] = CL = 8·10^-10 mol L^-1, CZn = 1.5·10^-9 mol L^-1
smiles,measurement,setting,value
"Cc1ncc([N+](=O)[O-])n1CCO [MNZ, 2-Methyl-5-nitroimidazole-1-ethanol]",logβ^H2L,[1]; [6],14.559(5) ^4
same,logβ^H2L,[1]; [7],14.833(4)
same,logβ^H2L,[1]; [8],14.877(7)
same,logβ^H2L,"[1]; t = 25 °C, I = 0.15 mol L^-1 NaCl, potentiometry",14.130(4)
same,logβ^H2L,[1]; [9],15.18(4)
same,logβ^H2L,[1]; [10],15.05(6)
same,logβ^H2L,[1]; [11],14.27(8)
same,logβ^H2L,[1]; [12],14.75(8)
same,logβ^H2L,[1]; [13],14.601(8)
same,logβ^HL,[1]; [6],12.00(1) ^4
same,logβ^HL,[1]; [7],12.180(8)
same,logβ^HL,[1]; [8],12.12(1)
same,logβ^HL,[1]; [9],12.51(4)
same,logβ^HL,[1]; [10],12.22(6)
same,logβ^HL,[1]; [11],11.88(7)
same,logβ^HL,[1]; [12],12.14(8)
same,logβ^HL,[1]; [13],12.000(6)
same,logβ average value,"[1]; L + 2H = LH2, t = 25 °C, potentiometry",14.15(6)
same,logβ average value,"[1]; L + H = LH, t = 25 °C, potentiometry",11.74(2) ^1
same,logK^H2L,[1]; [6],2.56
same,logK^H2L,[1]; [7],2.653
same,logK^H2L,[1]; [8],2.76
same,logK^H2L,"[1]; t = 25 °C, I = 0.15 mol L^-1 NaCl",2.46
same,logK^H2L,[1]; [9],2.67
same,logK^H2L,[1]; [10],2.83
same,logK^H2L,[1]; [11],2.39
same,logK^H2L,[1]; [12],2.61
same,logK^H2L,[1]; [13],2.601
same,logβ UV,[2],14.17(2)
same,"C (empirical parameter for dependence on ionic strength, Equation (5))",[3],1.0(2)
same,log^Tβ (constant at infinite dilution),[3]; extrapolated to I = 0 mol L^-1,15.0(2)
same,percentage of LH species,[4]; CL = 8·10^-10 mol L^-1,22%
same,percentage of CaLH species,"[4]; CL = 8·10^-10 mol L^-1, CCa = 0.01 mol L^-1",29%
same,percentage of CuL species,"[4]; CL = 8·10^-10 mol L^-1, CCu = 4·10^-5 mol L^-1",10%
same,percentage of ZnL species,[4]; [14],4%
same,percentage of ZnLOH species,[4]; [14],35%
same,logK1 (protonation constant),[5],18.1
same,logK2 (protonation constant),[5],7.01
same,logK3 (protonation constant),[5],2.64
